Laboratory results: patent US12479858B2, “Macrocyclic compounds as sting agonists and methods and uses thereof” (Lupin Limited, priority 2019, dated 2025)
pEC50: −log10 of the molar value. Counter-ions that a name gives are not always drawn.

Key:
[1] = target: T1, Human STING (Homo sapiens, UniProt Q86WV6, G230A/H232R/R293Q/R71H); experiment: Stimulation of human STING signaling in THP1 cell line (THP1-Blue ISG SEAP reporter); assay type: cell-based; conditions: THP1-Blue ISG cells, SEAP activity, 18-20 hours
T1 construct: using human THP1-Blue™ ISG SEAP based reporter cell line (Invivogen); host or cells: THP1-Blue ISG cells (human monocytic THP-1 derived SEAP reporter line)
Method: Biological Assay—Stimulation of Human STING Signaling in THP1 Cell Line
Compounds were tested for their STING activation potential using human THP1-Blue™ ISG SEAP based reporter cell line (Invivogen). Briefly, THP1-Blue ISG cells (100,000 cells/well) in 96 well plate were treated with varying concentrations of test and reference compounds and incubated at 37° C. with 5% CO2 for 18-20 hours. The control untreated cells were also set up. Post incubation, the cell supernatant was tested for SEAP (Secreted Embryonic Alkaline Phosphatase) activity using the QuantiBlue™ substrate reagent (Invivogen). The formation of blue coloured product was quantified by measuring absorbance at wavelength of 620 nm using PheraStar/Tecan reader. The average of duplicate readouts for each data point was plotted in GraphPad prism 6 against the concentration of test or reference compound to calculate EC50 value. The fold of SEAP induction or increase in luminescence at different data points was estimated against the un-stimulated cell control set.

[2] = tested on: CT26 Allograft; experiment: Tumor volume in CT26 allograft BALB/c mice model, intravenous administration; assay type: in vivo; conditions: for effect on tumor volume / subjects exhibiting complete tumor regression: i.v., indicated dose at days 1, 4, and 8
Method: Effect of Compounds on Tumor Volume in CT26 Allograft BALB/c Mice Model by Intravenous (i.v.) Administration
Healthy, female BALB/c mice in the age group of 5-8 weeks issued from Research Animal Facility (RAF). These mice were housed in individually ventilated cages (IVC) in the experimental animal room and were acclimatized not less than 5 days prior to cell inoculation. All the experimental activities were carried out inside the biosafety cabinet to ensure sterility. Under aseptic conditions, Allograft tumor model was generated by inoculating BALB/c mice with 0.1 million CT26 single cell suspension (colorectal cancer model), using 1 mL disposable syringe fitted with a 26G ½″ sterile needle. Each mouse was inoculated with 100 μL of CT26 cell suspension in phosphate buffered saline (PBS) media, subcutaneously in right flank region. Mice were randomized into different groups, post cell inoculation, with approximately equal mean and equal variation (S.E.M.) of tumor volumes in various treatment groups including vehicle control group.
Tumor size was measured with Vernier caliper when the tumor became palpable. Tumor volume (T. V.) was calculated by using the formula: Tumor volume (mm^3)=(L×W^2)/2 • Where, L—Length of tumor, W—Width of tumor
Mice were selected and randomized, on the basis of tumor volume, into required no. of groups with approximately equal mean and equal variation on day 1 of treatment, post-tumor cell inoculation. All study groups were treated via intravenous route on day 1, 4 and 8 dosing schedule, through lateral tail vein at a dose volume of 5 mL/kg.
Tumor sizes were measured with Vernier caliper twice weekly and body weights of mice were recorded daily.
Percent tumor growth inhibition (% TGI) was calculated using the formula: % TGI=[1−(Tf−Ti)/(Cf−Ci)]×100 Wherein Tf and Ti are the final and initial test tumor volumes, respectively, and Cf and Ci are the final and initial control mean tumor volumes, respectively.
Percent Tumor Regression (% TR) was calculated using the formula: % TR=[(Initial T.V.−Final T.V.)/(Initial T.V.)]×100 Wherein T.V.=Tumor Volume
Body weight change (%) was calculated by using the formula: Body weight change (%)[=(Final B.Wt.)−(Initial B.Wt.)/Initial B.Wt.]×100 Wherein B.Wt.=Body weight

T1 sequence (Q86WV6 whole entry R71H/G230A/H232R/R293Q): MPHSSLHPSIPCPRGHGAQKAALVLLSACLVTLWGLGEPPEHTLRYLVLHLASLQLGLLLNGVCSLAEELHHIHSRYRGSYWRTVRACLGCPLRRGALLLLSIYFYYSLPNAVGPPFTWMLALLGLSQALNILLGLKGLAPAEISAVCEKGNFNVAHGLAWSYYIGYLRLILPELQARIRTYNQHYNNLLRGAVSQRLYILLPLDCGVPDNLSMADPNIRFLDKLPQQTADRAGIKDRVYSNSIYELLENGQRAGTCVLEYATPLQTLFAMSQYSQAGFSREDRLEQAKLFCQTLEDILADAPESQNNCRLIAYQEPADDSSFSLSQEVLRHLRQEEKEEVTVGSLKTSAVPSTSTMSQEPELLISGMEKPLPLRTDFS

| Compound | pEC50 [1] | effect on body weight ([2]; 3 mpk (mg/kg)) | effect on tumor volume [2] | subjects exhibiting complete tumor regression [2] | effect on tumor volume at high dose ([2]; two different doses, days 1, 4, and 8, n=10 (FIG. 6)) |
| --- | --- | --- | --- | --- | --- |
| CCn1nc(C)cc1C(=O)Nc1nc2cc(C(N)=O)cc3c2n1C/C=C/Cn1c(NC(=O)c2cc(C)nn2CC)nc2cc(C(=O)N[C@H]4CC[C@H](c5nnn[nH]5)CC4)cc(c21)OC[C@@H](N1C2CCC1COC2)CO3 [Compound 12, (8S,E)-N4-((1R,4S)-4-(1H-tetrazol-5-yl)cyclohexyl)-8-(3-oxa-8-azabicyclo[3.2.1]octan-8-yl)-1,15-bis(1-ethyl-3-methyl-1H-pyrazole-5-carboxamido)-8,9,16,19-tetrahydro-7H-6,10-dioxa-2,14,15a,19a-tetraazacyclopentadeca[3,2,1-cd:8,9,10-c′d′]diindene-4,12-dicarboxamide sodium salt] | 8.00 to 9.00 | – | reduces tumor volume | 8 out of 10 | – |
| CCn1nc(C)cc1C(=O)Nc1nc2cc(C(N)=O)cc3c2n1C/C=C/Cn1c(NC(=O)c2cc(C)nn2CC)nc2cc(C(=O)N[C@H]4CC[C@H](C(=O)O)CC4)cc(c21)OC[C@@H](N1C2CCC1COC2)CO3 [Compound 14, (1S,4R)-4-((8S,E)-8-(3-oxa-8-azabicyclo[3.2.1]octan-8-yl)-12-carbamoyl-1,15-bis(1-ethyl-3-methyl-1H-pyrazole-5-carboxamido)-8,9,16,19-tetrahydro-7H-6,10-dioxa-2,14,15a,19a-tetraazacyclopentadeca[3,2,1-cd:8,9,10-c′d′]diindene-4-carboxamido)cyclohexane-1-carboxylic acid sodium salt] | 8.00 to 9.00 | – | reduces tumor volume | 6 out of 9 | – |

Continued, in another order:

| pEC50 [1] | Compound | effect on body weight ([2]; 3 mpk (mg/kg)) | effect on tumor volume [2] | subjects exhibiting complete tumor regression [2] | effect on tumor volume at high dose ([2]; two different doses, days 1, 4, and 8, n=10 (FIG. 6)) |
| --- | --- | --- | --- | --- | --- |
| 8.00 to 9.00 | CCn1nc(C)cc1C(=O)Nc1nc2cc(C(N)=O)cc3c2n1C/C=C/Cn1c(NC(=O)c2cc(C)nn2CC)nc2cc(C(=O)N[C@H]4CC[C@H](C(=O)O)CC4)cc(c21)OCCCO3 [Compound 2, (1R,4R)-4-((E)-12-carbamoyl-1,15-bis(1-ethyl-3-methyl-1H-pyrazole-5-carboxamido)-8,9,16,19-tetrahydro-7H-6,10-dioxa-2,14,15a,19a-tetraazacyclopentadeca[3,2,1-cd:8,9,10-c′d′]diindene-4-carboxamido)cyclohexane-1-carboxylic acid sodium salt] | < 10% | reduces tumor volume | 7 out of 9 | reduces tumor volume |
| 8.00 to 9.00 | CCn1nc(C)cc1C(=O)Nc1nc2cc(C(N)=O)cc3c2n1C/C=C/Cn1c(NC(=O)c2cc(C)nn2CC)nc2cc(C(=O)N[C@H]4CC[C@H](c5nnn[nH]5)CC4)cc(c21)OCCCO3 [Compound 6, (E)-N-((1R,4R)-4-(1H-tetrazol-5-yl)cyclohexyl)-1,15-bis(1-ethyl-3-methyl-1H-pyrazole-5-carboxamido)-8,9,16,19-tetrahydro-7H-6,10-dioxa-2,14,15a,19a-tetraazacyclopentadeca[3,2,1-cd:8,9,10-c′d′]diindene-4,12-dicarboxamide sodium salt] | – | reduces tumor volume | 7 out of 9 | – |
| 8.00 to 9.00 | CCn1nc(C)cc1C(=O)Nc1nc2cc(C(N)=O)cc3c2n1C/C=C/Cn1c(NC(=O)c2cc(C)nn2CC)nc2cc(C(=O)NCCCn4cc(C(=O)O)cn4)cc(c21)OCCCO3 [Compound 8, (E)-1-(3-(12-carbamoyl-1,15-bis(1-ethyl-3-methyl-1H-pyrazole-5-carboxamido)-8,9,16,19-tetrahydro-7H-6,10-dioxa-2,14,15a,19a-tetraazacyclopentadeca[3,2,1-cd:8,9,10-c′d′]diindene-4-carboxamido)propyl)-1H-pyrazole-4-carboxylic acid sodium salt] | – | reduces tumor volume | 5 out of 9 | – |
